Laboratory results reported in US5428031A, “Methods of treating cardiac arrhythmia” (priority 1993, dated 1995).

System: anesthetized dogs
Assay: frequency-dependent effects on cardiac (ventricular) refractory period in anesthetized dogs
Type: in vivo, dog
Settings: 1.0 mg/kg i.v.
Method: Purpose-bred male or female mongrel dogs (9.8-10.8 kg) were anesthetized with alpha chloralose (80-100 mg/kg i.v.), and the animals were ventilated using a volume-cycled respirator. The right femoral artery and vein were isolated and cannulated for the measurement of systemic arterial pressure and for test agent administration, respectively. A right thoracotomy was performed in the 4th intercostal space, the pericardium incised, and the heart suspended in a pericardial cradle. One stainless steel bipolar plunge electrode was sutured to the ,anterior surface of the right ventricle for the determination of ventricular excitation threshold and refractory periods, while a second stainless steel bipolar plunge electrode was sutured to the right ventricular apex for ventricular pacing. A 21 gauge stainless steel hypodermic needle attached to a 1 ml syringe containing 40% formaldehyde was introduced into the right atrium via a stab wound and purse-string suture. The atrioventricular (AV) node was identified and then chemically ablated with formaldehyde using the method of Steiner and Kovalik (Steiner C. and Kovalik A. T. W., "A simple technique for production of chronic complete heart block in dogs", J. Appl. Physiol. 25: 631-632:, 1968). After the ablation of the AV node, heart rate was controlled and maintained at either 60 or 150 beats/min, as dictated by the experimental protocol, by ventricular apical pacing. Limb electrodes were attached for the continuous recording of Lead II electrocardiogram.
Ventricular excitation threshold (ET) and relative refractory periods (RRPs) were determined alternately at heart rates of 60 and 150 beats/min using an extrastimulus technique described previously (Wallace A. A. et. al., "Cardiac electrophysiologic and inotropic actions of new and potent methanesulfonanilide Class III antiarrhythmic agents in the anesthetized dog". J. Cardiovasc. Pharmacol. 18: 687-695, 1991). Ventricular excitation threshold was defined as the minimum current required to evoke a propagated response for a ventricular extrastimulus introduced at a coupling interval of 250-300 msec after a basic ventricular apical beat. The ventricular relative refractory period was defined as the longest coupling interval failing to elicit a propagated response for a ventricular extrastimulus introduced with a current intensity of 2× the ventricular excitation threshold. Multiple alternating baseline 60 and 150 beat/min RRPs were measured in each preparation, with two-to-three stable consecutive baseline RRP determinations required prior to administration of the test agent.
The compound of Example 26 was administered intravenously at a dosage of 1.0 mg/kg over a period of 5 minutes to a group of 5 anesthetized dogs. The compound of Example 26 was infused in a vehicle of 2% cremophor/2% ethanol/96% saline, at a test agent concentration of 0.5 mg/ml. Ventricular RRPs at 60 and 150 beats/min were redetermined immediately, 15 and 30 minutes following the intravenous administration of the compound of Example 26. The frequency-dependence of the activity of the compound of Example 26 was assessed by comparing absolute increases in ventricular RRPs from the final corresponding baseline value determined at slower (60 beat/min) vs faster (150 beat/min) heart rates.

## CN1C(=O)[C@H](NC(=O)/C=C/c2ccc(Cl)cc2Cl)N=C(c2ccccc2)c2ccccc21 [Example 26, E-(+)-N-[(3R)-2,3-Dihydro-1-methyl-2-oxo-5-phenyl-1H-1,4-benzo-diazepin-3-yl]-3-(2,4-dichlorophenyl)-2-propenamide]
60 beat/min, 15 Min
  Increase in Ventricular Relative Refractory Period above baseline: 19.2 ± 3.4 ms
60 beat/min, 30 Min
  Increase in Ventricular Relative Refractory Period above baseline: 14.0 ± 2.3 ms
60 beat/min, Immediate
  Increase in Ventricular Relative Refractory Period above baseline: 29.6 ± 4.4 ms
150 beat/min, 15 Min
  Increase in Ventricular Relative Refractory Period above baseline: 15.6 ± 4.1 ms
150 beat/min, 30 Min
  Increase in Ventricular Relative Refractory Period above baseline: 11.4 ± 4.4 ms
150 beat/min, Immediate
  Increase in Ventricular Relative Refractory Period above baseline: 23.2 ± 7.3 ms
60 and 150 beat/min
  frequency dependence of increase in ventricular RRP: Equivalent increases in the ventricular RRPs
